According to patent US20150366847A1, “COMBINATION OF GERANYLGERANYLACETONE AND IBUDILAST AND METHODS OF USING SAME” (MediciNova, Inc., priority 2014, published 2015):

Key:
[1] = tested on: heat shock protein 70 (HSP70); conditions: mice subjected to an occlusion of the middle cerebral artery; cited from earlier work
animal model for ALS = assay: Rat model of ALS, brain mass; assay type: in vivo
[2] = tested on: animal model for Parkinson's disease; assay: Rat model of Parkinson's disease, brain mass; assay type: in vivo

Compound: CC(=O)CCC=C(C)CC/C=C(\C)CC/C=C(\C)CCC=C(C)C (mixture of isomers) [GGA, Geranylgeranyl acetone]
- induction of heat shock protein 70 (HSP70) [1]: inducer of heat shock protein 70 (HSP70)

Compound: CC(C)C(=O)c1c(C(C)C)nn2ccccc12 [ibudilast, 3-isobutyryl-2-isopropylpyrazolo[1,5-a]pyridine]
- brain mass (animal model for ALS): increase brain mass
- brain mass [2]: increase brain mass
